We go through one compound from the NIST ThermoML archive (doi:10.1016/j.jct.2017.07.009).

By vapor or sublimation pressure is commonly meant the equilibrium pressure above the liquid or solid.

The conditions of this data set: 1410 K; Crystal; Calculated from knudsen effusion weight loss.

With `[O-2].[Zn+2]` [zinc(II) oxide], the “vapor or sublimation pressure” value is given as 0.00842 kPa.
